Converted amounts (≈) assume the structure as drawn.
Assays:
Plasma stability, mouse = conditions: % parent remaining at 5 h
Plasma stability, human = conditions: % parent remaining at 5 h
Caco-2 monolayer = assay: Bidirectional Caco-2 permeability; format: in vitro ADME; conditions: for Caco-2 A-B: A-B direction; for Caco-2 B-A: B-A direction
[1] = Hepatocyte stability, human; conditions: % parent remaining at 2 hour
[2] = BBB parallel artificial membrane permeability assay; format: in vitro ADME; conditions: for BBB PAMPA: Pe
[3] = Hepatocyte stability, mouse; conditions: % parent remaining at 2 hour
[4] = Microsomal stability, human; conditions: % parent remaining at 1 hour
[5] = Microsomal stability, mouse; conditions: % parent remaining at 1 hour
[6] = Solubility in PBS and H2O, dry powder, 24 hour timepoint
[7] = Plasma protein binding by rapid-equilibrium dialysis, mouse; conditions: 37 °C for 5 h
[8] = Plasma protein binding by rapid-equilibrium dialysis, human; conditions: 37 °C for 5 h
[9] = Bidirectional Caco-2 permeability; format: in vitro ADME; conditions: human, Caco-2
physchem = conditions: thermodynamic from solid

| plasma stability mouse (Plasma stability, mouse) | plasma stability human (Plasma stability, human) | Caco-2 A-B (Caco-2 monolayer) | Caco-2 B-A (Caco-2 monolayer) | hepatocytes human [1] | BBB PAMPA [2] | hepatocytes mouse [3] | microsomal stability human [4] | microsomal stability mouse [5] | solubility H2O [6] | solubility PBS [6] | protein binding mouse [7] | protein binding human [8] | Papp A→B [9] | Papp B→A [9] | solubility at 24 h (physchem; PBS, aqueous buffer) | solubility at 24 h (physchem; water) | Papp ([2]; PAMPA) | SMILES |
| --- | --- | --- | --- | --- | --- | --- | --- | --- | --- | --- | --- | --- | --- | --- | --- | --- | --- | --- |
| 100 % remaining | 92 % remaining | 16 10^−6 cm.s^−1 | 8 10^−6 cm.s^−1 | 103 % remaining | 83 10^−6 cm s^−1 | 103 % remaining | 73 % remaining | 68 % remaining | >500 µM | >500 µM | 19 % bound | 7 % bound | – | – | – | – | – | CCCN1[C@H](CO)[C@H](c2ccccc2)[C@@H]1CN [26b, ((2S,3R,4R)-4-(Aminomethyl)-3-phenyl-1-propylazetidin-2-yl)methanol] |
| 94 % remaining | 97 % remaining | – | – | 104 % remaining | – | 99 % remaining | 96 % remaining | 98 % remaining | – | – | 46 % bound | 24 % bound | 14 ×10⁻⁶ cm/s | 32 ×10⁻⁶ cm/s | 485 µM (≈ 158 µg/mL) | 388 µM (≈ 126 µg/mL) | 14 ×10⁻⁶ cm/s | OC[C@@H]1[C@H](c2ccc(Br)cc2)[C@@H]2CNCCCCN12 [29a, ((8R,9R,10S)-9-(4-Bromophenyl)-1,6-diazabicyclo[6.2.0]decan-10-yl) methanol] |
| 98 % remaining | 106 % remaining | 48 10^−6 cm.s^−1 | 51 10^−6 cm.s^−1 | 32 % remaining | 14 10^−6 cm s^−1 | 71 % remaining | 88 % remaining | 64 % remaining | 496 µM (≈ 136 µg/mL) | 489 µM (≈ 134 µg/mL) | 20 % bound | 18 % bound | – | – | – | – | – | CCCN1C(CO)C2c3ccccc3N(C(C)=O)CC21 (racemic) [31b, 1-((±)-1-(Hydroxymethyl)-2-propyl-1,2a,3,8b-tetrahydroazeto[2,3-c]quinolin-4 (2H)-yl) ethanone] |

| SMILES | plasma stability mouse (Plasma stability, mouse) | plasma stability human (Plasma stability, human) | Caco-2 A-B (Caco-2 monolayer) | Caco-2 B-A (Caco-2 monolayer) | hepatocytes human [1] | BBB PAMPA [2] | hepatocytes mouse [3] | microsomal stability human [4] | microsomal stability mouse [5] | solubility H2O [6] | solubility PBS [6] | protein binding mouse [7] | protein binding human [8] | Papp A→B [9] | Papp B→A [9] | solubility at 24 h (physchem; PBS, aqueous buffer) | solubility at 24 h (physchem; water) | Papp ([2]; PAMPA) |
| --- | --- | --- | --- | --- | --- | --- | --- | --- | --- | --- | --- | --- | --- | --- | --- | --- | --- | --- |
| CCCN1C2CN(C(C)=O)CC1C2c1ccccc1 (stereo not shown) [27b] | 94 % remaining | 83 % remaining | 54 10^−6 cm.s^−1 | 56 10^−6 cm.s^−1 | 104 % remaining | 15 10^−6 cm s^−1 | 94 % remaining | 93 % remaining | 93 % remaining | 483 µM (≈ 125 µg/mL) | 476 µM (≈ 123 µg/mL) | 13 % bound | 23 % bound | – | – | – | – | – |

Source: article PMC3454511 (The Journal of organic chemistry, 2012)
